Measured values from patent US20110044929A1, “FORMULATIONS AND METHODS FOR TREATMENT OF INFLAMMATORY DISEASES” (Vical Incorporated, priority 2004, published 2011).
Where two headings read alike, the source gives them in different places.

B1: Del-1 protein: Developmentally regulated Endothelial Locus-1, an endothelial cell stimulating angiogenic protein (protein, UniProt O43854 24-480, looked up)
EGF-like repeat and discoidin …: DICDPNPCENGGICLPGLADGSFSCECPDGFTDPNCSSVVEVASDEEEPTSAGPCTPNPCHNGGTCEISEAYRGDTFIGYVCKCPRGFNGIHCQHNINECEVEPCKNGGICTDLVANYSCECPGEFMGRNCQYKCSGPLGIEGGIISNQQITASSTHRALFGLQKWYPYYARLNKKGLINAWTAAENDRWPWIQINLQRKMRVTGVITQGAKRIGSPEYIKSYKIAYSNDGKTWAMYKVKGTNEDMVFRGNIDNNTPYANSFTPPIKAQYVRLYPQVCRRHCTLRMELLGCELSGCSEPLGMKSGHIQDYQITASSIFRTLNMDMFTWEPRKARLDKQGKVNAWTSGHNDQSQWLQVDLLVPTKVTGIITQGAKDFGHVQFVGSYKLAYSNDGEHWTVYQDEKQRKDKVFQGNFDNDTHRKNVIDPPIYARHIRILPWSWYGRITLRSELLGCTEEE

How the values were obtained:
[1] = tested on: patients with intermittent claudication; conditions: Lederman et al. 2002; cited from earlier work
HUVEC cells = test: Adenosine release from HUVEC by liquid chromatography; type: cell-based, human; conditions: over time, normoxic and hypoxic
Description: For this reason, studies were undertaken to determine the effect of certain poloxamers in vitro in human vascular endothelial cells (HUVEC) and human skeletal muscle myoblast (HSMM) cells under normoxic and hypoxic (5% O2) conditions. Production of adenosine, cytokines, growth factors, or a combination of these biologically relevant molecules was measured after exposure to either poloxamer-188 (˜BASF Pluronic F-68), poloxamer-235 (˜BASF Pluronic P85), cilostazol, Del-1 protein, or medium alone. Monitoring for generation of adenosine was conducted by HPLC. […] This increased level of adenosine was seen over time in both hypoxic and normoxic cells exposed to poloxamer-235.
HUVEC and HSMM cells are harvested after fourth population doubling from the time of purchase by trypsinization. The cells are suspended in appropriate complete medium and plated in a 60×15 culture dishes at the density of […] per well and incubated for 24 hrs. The cells are fed with EBM (HUVEC cells) and SkBM (HSMM cells) culture medium containing 0.5% FCS for 24 hrs to growth-arrest the cells. […]

[2] = tested on: patients with intermittent claudication; conditions: cited from earlier work
CD-1 mice = test: Murine hindlimb ischemia model; type: in vivo, mouse; conditions: repeated intramuscular injections
Description: A gene-based approach to Del-1 delivery using a plasmid vector was developed for the purpose of enhancing relatively sustained local concentrations with a consequent reduction in systemic exposure to the angiogenic growth factor while at the same time avoiding known adverse effects that may arise with the use of a viral platform.
Results from preclinical studies with recombinant murine Del-1 protein and with formulated Del-1 plasmid compared favorably to results obtained with bFGF and VEGF165. In-house research provided for selection of the non-ionic polymer poloxamer 188 as an important constituent for a pharmaceutical formulation of the Del-1 gene encoded on plasmid DNA. The poloxamer formulation was developed after considerable research to provide for a compound that would give increased expression over DNA in saline.
The effects of formulated hDel-1 plasmid versus formulated VEGF165 plasmid and empty plasmid were investigated in a murine hindlimb ischemia model. Bilateral ischemia was induced in hindlimbs of CD-1 mice by ligation of the femoral artery. A control group underwent sham surgery without femoral artery ligation. […] Exercise tolerance was then determined at weekly intervals through four weeks post surgery.

mice = test: Subcutaneous Matrigel implant model; type: in vivo, mouse
Description: Poloxamer Inhibition of Inflammation in Murine Study: Initial studies incorporating either FGF (positive control), saline (negative control), Del-1 protein (another known angiogenic agent) or poloxamer-188 into Matrigel that was placed subcutaneously into the lower abdomen of mice yielded interesting results. Matrigel Basement Membrane Matrix (BD Biosciences) is a solubilized basement membrane preparation extracted from the Engelbreth-Holm-Swarm (EHS) mouse sarcoma. Its major component is laminin, followed by collagen IV, heparan sulfate proteoglycans, entactin and nidogen. In the Matrigel angiogenesis model, poloxamer-188 was compared to other known angiogenic agents such as fibroblast growth factor (FGF, positive control), Del-1 protein, or saline as a negative control.
After gaining experience with the system, it was felt that the quantity of Del-1 used should be titrated to see if a dose response with the protein could be distinguished, and to alter the ratio of P188 to matrigel. In the first round of studies it was noted that the 5% P188 concentration added to the Matrigel appeared to inhibit polymerization of the Matrigel. […] Therefore, in the repeat in vivo experiment the Matrigel and poloxamer concentrations were altered such that the initial concentrations were similar to those that yielded good polymerization, but still gave a final concentration of 5% P188 (the concentration tested in clinical trials).
Matrigel implants were placed subcutaneously in the lower abdominal/inguinal region of mice and harvested 4 to 7 days later.

Molecule | observed difference in change in PWT versus placebo [1] [min] | adenosine in the supernatant (HUVEC cells) | peak walking time ([2]; 100 mg twice/day) | observed difference in change in PWT versus placebo ([2]; Dawson et al. 1998) [min] | side effects (headaches, palpitations, gastrointestinal disturbances) ([2]; clinical trials) | vascular perfusion (CD-1 mice) | cellular response of Matrigel implant (mice; Del-1 less than 200 ugs/ml) | vessel growth in Matrigel angiogenesis model (mice; first round of studies) | morphologic pattern of Matrigel implant (cellularity) (mice; harvested 4 to 7 days, H&E, Del-1 at 200 ug/ml)
recombinant fibroblast growth factor-2: recombinant fibroblast growth factor-2 of the TRAFFIC study | 1.17 | – | – | – | – | – | – | – | –
O=C1CCc2cc(OCCCCc3nnnn3C3CCCCC3)ccc2N1 [cilostazol] | – | least stimulatory | improve peak walking time | 2.00 | high incidence of side effects | – | – | – | –
B1 | – | least stimulatory | – | – | – | increased vascular perfusion | substantially less cellular response | light to moderate vessel growth | high cellularity
